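Cultured in 96-well plates, cells were exposed to test compound for 48 hours across five concentrations. At the TGI there is no net growth.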
Columns and labels:
Assay in all cases: inhibition of tumour cell growth, NCI panel, 48 h
[1] = test system: SK-MEL-28 melanoma
[2] = test system: OVCAR-5 ovarian
[3] = test system: HCC-2998 colon
[4] = test system: CCRF-CEM leukemia
[5] = test system: HCT-15 colon
[6] = test system: NCI-H460 lung
[7] = test system: HT29 colon
[8] = test system: KM12 colon
[9] = test system: A498 renal
[10] = test system: SF-268 CNS
[11] = test system: RXF 393 renal
[12] = test system: UO-31 renal
[13] = test system: SNB-19 CNS
[14] = test system: OVCAR-3 ovarian
[15] = test system: LOX IMVI melanoma
[16] = test system: SF-295 CNS
[17] = test system: HCT-116 colon
[18] = test system: OVCAR-4 ovarian
[19] = test system: KM20L2 colon
[20] = test system: A549 NSCLC
[21] = test system: SNB-78 CNS
[22] = test system: RPMI-8226 leukemia
[23] = test system: SNB-75 CNS
[24] = test system: XF 498 CNS
[25] = test system: EKVX NSCLC
[26] = test system: MALME-3M melanoma
[27] = test system: MOLT-4 leukemia
[28] = test system: ACHN renal
[29] = test system: U251 CNS
[30] = test system: M19-MEL melanoma
[31] = test system: SF-539 CNS
[32] = test system: IGROV1 ovarian
[33] = test system: M14 melanoma
[34] = test system: HOP-92 NSCLC
[35] = test system: HL-60(TB) leukemia
[36] = test system: LXFL 529 NSCLC
[37] = test system: SK-MEL-2 melanoma
[38] = test system: TK-10 renal
[39] = test system: OVCAR-8 ovarian
[40] = test system: K-562 leukemia
[41] = test system: 786-0 renal
[42] = test system: SN12C renal
[43] = test system: NCI-H226 lung
[44] = test system: CAKI-1 renal
[45] = test system: SW-620 colon
[46] = test system: HOP-18 NSCLC
[47] = test system: UACC-62 melanoma
[48] = test system: SR leukemia
[49] = test system: UACC-257 melanoma
[50] = test system: DMS 273 small cell lung
[51] = test system: SK-MEL-5 melanoma
[52] = test system: DLD-1 colon
[53] = test system: COLO 205 colon
[54] = test system: SK-OV-3 ovarian
[55] = test system: DMS 114 small cell lung
[56] = test system: HOP-62 NSCLC
[57] = test system: NCI-H23 lung
[58] = test system: NCI-H522 lung
[59] = test system: RXF-631 renal

Measured: TGI

C=C1C(=O)OC2C=C(CCC(C)=O)C(C)C(OC(C)=O)CC12 (configuration not stated)
36 µM: [39]
40.6 µM: [6]
55.4 µM: [20]
3.34 µM: [15]
8.89 µM: [35]
37.2 µM: [13]
31.1 µM: [29]
16.4 µM: [19]
32.1 µM: [42]
20.1 µM: [5]
29.6 µM: [2]
26 µM: [14] | [25]
64.7 µM: [30]
19.7 µM: [28]
20.7 µM: [33]
5.42 µM: [11]
1.22 µM: [45]
24.4 µM: [23] | [38]
52.9 µM: [48]
12.4 µM: [4]
32.8 µM: [10] | [43]
23.6 µM: [44]
21.4 µM: [41]
44 µM: [40]
27.1 µM: [7]
12.9 µM: [34]
26.6 µM: [12]
24.1 µM: [46]
40.2 µM: [16]
24 µM: [22]
27.4 µM: [21] | [47]
21.2 µM: [17]
28.5 µM: [31]
43.9 µM: [32]
25.2 µM: [26]
30.1 µM: [9]
27.9 µM: [37]
34.1 µM: [27]
27.7 µM: [18]
1.67 µM: [36]
20.8 µM: [1]
21.5 µM: [3]
30.5 µM: [8]
26.1 µM: [24]

O=C(NC1C=Nc2ccc([N+](=O)[O-])cc2NC1=O)c1cc(Cl)cc([N+](=O)[O-])c1 (configuration not stated)
84.2 µM: [55]
67.8 µM: [58]
not listed: [14] | [26] | [41] | [46] | [59]
> 100 µM: all other assays above

COC(=O)NN=C1C(C)(C)C(=O)C1(C)C
not listed: [5] | [13] | [18] | [30] | [42] | [44] | [46] | [48] | [55]
> 100 µM: all other assays above
